Data set [1] relates to breast (BT-20) cancer cell lines. Briefly: Cytotoxicity test (MTT), BT-20. It is filed as cell-based, human. The note with it: BT20, 48 hours. An excerpt:
(§1) Cytotoxic effects of test substances are testes by means of using human breast (BT-20), melanoma (SK-Mel 128), prostate (DU-145), liver (SNU-398) and lung (A549) cancer cell lines. Toxic effects of test substances on the healthy normal cells are studied on human fibroblast cells (HFC).
(§2) Cell suspension prepared from alpha-MEM having 10% FBS (Fetal Bovine Serum), fungizone and penicillin/streptomycin is distributed as 5×10^3 of cell in each well in the cell culture containers comprising 96 wells for the test. […] Cells are kept in a humid environment at 5% of CO2 at 37°C for 48 hours in the presence of the test substance, of which final densities are of 200-0.09 µg/mL. 10 µL from the MTT solution (3-[4,5-dimethyltioazol-2,5-diphenyltetrazolium bromide) prepared at a density of 5 mg/mL is added to each well so as to determine the cell generation rate at the end of incubation period. After culture containers are kept in the humid environment at 5% of CO2 at 37°C for 2 hours, the content is emptied and dimethyl sulphoxide (DMSO) is added in the value of 100 µL/well on cells so as to solubilize intracellular formazan crystals. After incubation for 30 minutes, the color intensity is measured in the wave length of 570/620 by means of ELISA Microplate Reader (Tecan, Sunrise).

The subject of data set [2] is supercoiled pBR322 plasmid DNA. Briefly: Hydrolytic nuclease activity (agarose gel electrophoresis). The data set is classed as biochemical. To be noted: 7a 6.25-50 µM; 3a 12.5-100 µM; without light. An excerpt:
(§3) Cleavage activities of supercoiled pBR322 plasmid DNA of the compounds are observed by means of using agarose-gel electrophoresis. When the supercoiled is exposed to pBR322 plasmid DNA electrophoresis, it is observed that the supercoiled form (Form I) migrates in the swiftest manner. In case of a cut occurred on a single chain, the supercoiled form creates a nicked form (Form II) moving in the slowest manner. In case both chains are cut, the linear form (Form III) migrating between Form I and Form II.
Total volume of reaction mixture contained 50 mM Tris-HCl (pH 7.0), supercoiled pBR322 plasmid DNA (250 ng), and different concentrations of compound. While the well content is loaded to 0.8 percent of agarose gel (comprising 0.25 µg/mL EB), gel loading dye also added and loaded to the gel. After addition of running buffer, it is exposed to electrophoresis by applying a current of 100 volt for 90 minutes.

Data set [3] concerns melanoma (SK-Mel 128) cancer cell lines. Briefly: Cytotoxicity test (MTT), SK-Mel 128. It is filed as cell-based, human. The note with it: SK-MEL 128, 48 hours.
Source text: as §1, §2

The subject of data set [4] is lung (A549) cancer cell lines. The experiment in a line: Cytotoxicity test (MTT), A549. It is filed as cell-based, human. To be noted: A549, 48 hours.
Source text: as §1, §2

The test system of data set [5] is liver (SNU-398) cancer cell lines. The experiment in a line: Cytotoxicity test (MTT), SNU-398. The data set is classed as cell-based, human. To be noted: SNU-398, 48 hours.
Source text: as §1, §2

In data set [6] the test system is CT-DNA. Briefly: Competitive EB binding experiment. The note with it: EB (50 µM), CT-DNA (50 µM), pH 7.2. The protocol:
It is observed in competitive EB binding studies of compounds how the wave length and absorbance, in which EB (50 µM) whose concentration is kept stable presents the maximum absorbance, vary with addition of CT-DNA (50 µM) and then with simultaneous addition of DNA and complex. This study is carried out in the buffer of 5 mM Tris-HCl/50 mM NaCl (pH 7.2).

The subject of data set [7] is prostate (DU-145) cancer cell lines. The experiment in a line: Cytotoxicity test (MTT), DU-145. The note with it: DU-145, 48 hours. It is filed as cell-based, human.
Source text: as §1, §2

The test system of data set [8] is CT-DNA. Briefly: UV-Vis absorption titration. The data set is classed as binding. The note with it: in the presence of CT-DNA; 5 mM Tris-HCl/50 mM NaCl (pH 7.2). The protocol:
Stock solutions of compounds are obtained by means of being solved in water and stored in a room temperature in darkness. Stock solutions of CT-DNA are prepared in 5 mM Tris-HCl buffer of 7.2 pH with 50 mM NaCl and stored at 4 °C for three days. At the end of this period, absorbance rates of 260 and 280 nm are calculated so as to determine rate of DNA impurity. […] Concentration of DNA is measured and calculated at 260 nm by using molar excitation coefficient of (ε) 6600 M^-1cm^-1. All studies with the interaction between compounds and CT-DNA are carried out in 5 mM Tris-HCl/50 mM NaCl (pH 7.2) by keeping stock solutions prepared in water at the stable concentration and changing CT-DNA concentration. While carrying out this process, absorbance of CT-DNA is eliminated by adding CT-DNA in an equal amount on the blind solution.
Variations in the absorbance intensity are presented in percent. %H = [(A1−A2)/(A1)] × 100 [formula]
A1: Maximum absorbance of the compound; A2: Absorbance of the compound subsequent to addition of DNA.

Data set [9] concerns supercoiled pBR322 plasmid DNA. Briefly: Nuclease activity under irradiation (photonuclease). To be noted: for nuclease activity under irradiation: light for 15 minutes, 700 nm filter, increasing concentrations. The data set is classed as biochemical.
Source text: as §3
It is used General Electric quartz lamb of 300 watts and optical filter of 700 nm for compounds illustrated as Formula I and II to light in the proper wave length so as to observe that the supercoiled pBR322 plasmid DNA is cleavage by the compounds and so as to evaluate usability potentials of the compounds in the photo-dynamic therapy. In this study, total volume of reaction mixture contained 50 mM Tris-HCl (pH 7.0), super-coiled pBR322 plasmid DNA (250 ng), and increasing concentrations of compounds. Afterwards, well contents are exposed to light for 15 minutes. At the end of this period, after mixtures are incubated in darkness at 37 °C for an hour, reactions are stopped by means of above-mentioned methods and cut products are observed on the agarose gel under UV light.

Usually CC50 stands for the concentration that lowers cell viability or growth by half. A high value points to lower toxicity to the cells.

For “bis(3,5-bis{3-[3-(diethylmethylamino)phenoxy]propoxy}phenyl)methoxy)phthalocyaninato silicon (IV) Iodide [7a]”, the CC50 came out at 1440 nM in [1]; 1130 nM in data set [3]; 1180 nM in [4]; 490 nM in data set [5]; 2990 nM in data set [7]. In addition, the hydrolytic nuclease activity result in data set [2] is “observed for the compound 7a depending on the concentration”. Further, in data set [6], the “competitive EB binding” value was “compete with EB so as to bind with CT-DNA”. Besides, in data set [8], the hypochromism was 43.64%. Besides, the red-shift in data set [8] was found to be 6 nm. Further, the “nuclease activity under irradiation” value in [9] is on record as “exhibits the nuclease activity depending on the concentration”.

For “bis(3,5-bis{3-[3-trimethylamino)phenoxy]propoxy}phenyl)methoxy)phthalocyaninato silicon (IV) Iodide [3a]”, the CC50 in data set [1] came to 3960 nM; in data set [3] it was 1470 nM; in data set [4], 2240 nM; in [5], 860 nM; in data set [7], 4630 nM. In addition, in data set [2], the hydrolytic nuclease activity result is “observed for the compound 3a depending on the concentration”. Moreover, the “competitive EB binding” value in data set [6] is given as “compete with EB so as to bind with CT-DNA”. The hypochromism in [8] came out at 25.40%. The red-shift in [8] is 6 nm. In addition, in data set [9] (in the presence of light, concentration of 100 µM), the “nuclease activity under irradiation at 100 µM” value is recorded as “destroys pBR322 plasmid DNA completely”. Also, the “nuclease activity under irradiation” value in data set [9] is “exhibits the nuclease activity depending on the concentration”.

Values taken from patent EP3856749B1, “WATER-SOLUBLE, NON-AGGREGATED SILICON PHTALGCYANINE COMPOUND HAVING IN VITRO ANTICANCER EFFECT AGAINST CANCER TYPES OF LUNG, LIVER, BREST AND MELANOMA” (Karadeniz Teknik Universitesi, priority 2018, dated 2020).
